Tests used:
Type in all cases: in vivo
[1] = test system: smallflower flatsedge (Cyperus difformis); assay: Test B flood test; settings: for S. Flatsedge plant response rating: Postemergence section (flood test species)
Procedure, shortened: (§1)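 Flood test on plants grown to the 2-leaf stage; treated plants kept in greenhouse twelve to sixteen days, then visually rated against controls on a 0 (no effect) to 10 (complete control) scale.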

[2] = test system: duck salad (Heteranthera limosa); assay: Test B flood test
Procedure, shortened: as §1

[3] = test system: rice (Oryza sativa); assay: Test B flood test; settings: for Rice plant response rating: Postemergence section (flood test species)
Procedure, shortened: as §1

[4] = test system: bamyardgrass (Echinochloa crus-galli); assay: Test B flood test
Procedure, shortened: as §1

[5] = test system: cotton (Gossypium hirsutum); assay: Test C; design: key: 0 was no effect; 100 was complete control; settings: PREEMERGENCE
[6] = test system: giant foxtail (Setaria faberii); assay: Test C; design: key: 0 was no effect; 100 was complete control; settings: PREEMERGENCE
[7] = test system: field bindweed (Convolvulus arvensis); assay: Test C; design: key: 0 was no effect; 100 was complete control; settings: PREEMERGENCE
[8] = test system: wild poinsettia (Euphorbia heterophylla); assay: Test C; design: key: 0 was no effect; 100 was complete control; settings: PREEMERGENCE
[9] = test system: eastern black nightshade (Solanum ptycanthum); assay: Test C; design: key: 0 was no effect; 100 was complete control; settings: PREEMERGENCE
[10] = test system: rape (Brassica napus); assay: Test B pre-/postemergence; design: key: 0 is no effect; 10 is complete control
Procedure, shortened: (§2)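 Scored visually 0 (none) to 10 (complete control) against untreated plants after twelve to sixteen greenhouse days. Test chemicals, formulated in surfactant-containing non-phytotoxic solvent, applied to soil after planting and, separately, onto 1- to 4-leaf (2–18 cm) plants.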

[11] = test system: soybean (Glycine max); assay: Test B pre-/postemergence; design: key: 0 is no effect; 10 is complete control
Procedure, shortened: as §2

[12] = test system: lambsquarters (Chenopodium album); assay: Test C; design: key: 0 was no effect; 100 was complete control; settings: PREEMERGENCE
[13] = test system: surinam grass (Brachiaria decumbens); assay: Test C; design: key: 0 was no effect; 100 was complete control; settings: PREEMERGENCE
[14] = Rate 62 g/ha, Postemergence (flood test)
[15] = Rate 125 g/ha, Postemergence, flood test
[16] = Rate 250 g/ha, Postemergence (flood test species)
[17] = Rate 250 g/ha, Postemergence (so in the source)

Cc1cnc(-c2ccc(C(F)(F)F)cc2)nc1Cc1cccc(OC(F)(F)F)c1 [Compound 15]
Plant response rating, S. Flatsedge [1, 14]: 7
Plant response rating, S. Flatsedge [1, 15]: 8
Plant response rating, S. Flatsedge [1, 16]: 9
Plant response rating, Ducksalad [2, 14]: 6
Plant response rating, Ducksalad [2, 15]: 6
Plant response rating, Ducksalad [2, 16]: 7
Plant response rating, Rice [3, 14]: 6
Plant response rating, Rice [3, 15]: 7
Plant response rating, Rice [3, 16]: 7
Plant response rating, Barnyardgrass [4, 14]: 6
Plant response rating, Barnyardgrass [4, 15]: 8
Plant response rating, Barnyardgrass [4, 16]: 9
Plant response rating, Cotton ([5]; Rate 35 g/ha): 5
Plant response rating, Cotton ([5]; Rate 70 g/ha): 10
Plant response rating, Cotton ([5]; Rate 140 g/ha): 10
Plant response rating, Giant foxtail ([6]; Rate 35 g/ha): 70
Plant response rating, Giant foxtail ([6]; Rate 70 g/ha): 100
Plant response rating, Giant foxtail ([6]; Rate 140 g/ha): 100
Plant response rating, Field bindweed ([7]; Rate 35 g/ha): 65
Plant response rating, Field bindweed ([7]; Rate 70 g/ha): 100
Plant response rating, Field bindweed ([7]; Rate 140 g/ha): 100
Plant response rating, Wild poinsettia ([8]; Rate 35 g/ha): 0
Plant response rating, Wild poinsettia ([8]; Rate 70 g/ha): 0
Plant response rating, Wild poinsettia ([8]; Rate 140 g/ha): 20
Plant response rating, E. blacknightsh ([9]; Rate 35 g/ha): 70
Plant response rating, E. blacknightsh ([9]; Rate 70 g/ha): 95
Plant response rating, E. blacknightsh ([9]; Rate 140 g/ha): 95
Plant response rating, Rape ([10]; Rate 62 g/ha, Postemergence): 9
Rape plant response rating ([10]; Rate 62 g/ha, Preemergence): 6
Plant response rating, Rape ([10]; Rate 125 g/ha, Postemergence): 9
Rape plant response rating ([10]; Rate 125 g/ha, Preemergence): 9
Plant response rating, Rape ([10]; Rate 250 g/ha, Postemergence): 9
Plant response rating, Rape ([10]; Rate 250 g/ha, Preemergence): 9
Plant response rating, Soybean ([11]; Rate 62 g/ha, Postemergence): 9
Soybean plant response rating ([11]; Rate 62 g/ha, Preemergence): 0
Plant response rating, Soybean ([11]; Rate 125 g/ha, Postemergence): 9
Soybean plant response rating ([11]; Rate 125 g/ha, Preemergence): 1
Plant response rating, Soybean ([11]; Rate 250 g/ha, Postemergence): 9
Plant response rating, Soybean ([11]; Rate 250 g/ha, Preemergence): 1
Plant response rating, Lambsquarters ([12]; Rate 35 g/ha): 0
Plant response rating, Lambsquarters ([12]; Rate 70 g/ha): 20
Plant response rating, Lambsquarters ([12]; Rate 140 g/ha): 60
Plant response rating, Surinam grass ([13]; Rate 35 g/ha): 20
Plant response rating, Surinam grass ([13]; Rate 70 g/ha): 50
Plant response rating, Surinam grass ([13]; Rate 140 g/ha): 80

COc1cnc(-c2ccc(C(F)(F)F)cc2)nc1Cc1cccc(C(F)(F)F)c1 [Compound 23]
Plant response rating, S. Flatsedge [1, 14]: 4
Plant response rating, S. Flatsedge [1, 15]: 8
Plant response rating, S. Flatsedge [1, 16]: 9
Plant response rating, Ducksalad [2, 14]: 2
Plant response rating, Ducksalad [2, 15]: 4
Plant response rating, Ducksalad [2, 16]: 6
Plant response rating, Rice [3, 14]: 3
Plant response rating, Rice [3, 15]: 4
Plant response rating, Rice [3, 16]: 5
Plant response rating, Barnyardgrass [4, 14]: 4
Plant response rating, Barnyardgrass [4, 15]: 5
Plant response rating, Barnyardgrass [4, 16]: 6
Plant response rating, Cotton ([5]; Rate 35 g/ha): 5
Plant response rating, Cotton ([5]; Rate 70 g/ha): 75
Plant response rating, Cotton ([5]; Rate 140 g/ha): 75
Plant response rating, Giant foxtail ([6]; Rate 35 g/ha): 85
Plant response rating, Giant foxtail ([6]; Rate 70 g/ha): 100
Plant response rating, Giant foxtail ([6]; Rate 140 g/ha): 100
Plant response rating, Field bindweed ([7]; Rate 35 g/ha): 20
Plant response rating, Field bindweed ([7]; Rate 70 g/ha): 100
Plant response rating, Field bindweed ([7]; Rate 140 g/ha): 100
Plant response rating, Wild poinsettia ([8]; Rate 35 g/ha): 5
Plant response rating, Wild poinsettia ([8]; Rate 70 g/ha): 5
Plant response rating, Wild poinsettia ([8]; Rate 140 g/ha): 10
Plant response rating, E. blacknightsh ([9]; Rate 35 g/ha): 95
Plant response rating, E. blacknightsh ([9]; Rate 70 g/ha): 100
Plant response rating, E. blacknightsh ([9]; Rate 140 g/ha): 100
Plant response rating, Rape ([10]; Rate 62 g/ha, Postemergence): 10
Rape plant response rating ([10]; Rate 62 g/ha, Preemergence): 1
Plant response rating, Rape ([10]; Rate 125 g/ha, Postemergence): 10
Rape plant response rating ([10]; Rate 125 g/ha, Preemergence): 3
Plant response rating, Rape ([10]; Rate 250 g/ha, Postemergence): 10
Plant response rating, Rape ([10]; Rate 250 g/ha, Preemergence): 7
Plant response rating, Soybean ([11]; Rate 62 g/ha, Postemergence): 8
Soybean plant response rating ([11]; Rate 62 g/ha, Preemergence): 1
Plant response rating, Soybean ([11]; Rate 125 g/ha, Postemergence): 8
Soybean plant response rating ([11]; Rate 125 g/ha, Preemergence): 1
Plant response rating, Soybean ([11]; Rate 250 g/ha, Postemergence): 8
Plant response rating, Soybean ([11]; Rate 250 g/ha, Preemergence): 1
Plant response rating, Lambsquarters ([12]; Rate 35 g/ha): 60
Plant response rating, Lambsquarters ([12]; Rate 70 g/ha): 100
Plant response rating, Lambsquarters ([12]; Rate 140 g/ha): 100
Plant response rating, Surinam grass ([13]; Rate 35 g/ha): 5
Plant response rating, Surinam grass ([13]; Rate 70 g/ha): 45
Plant response rating, Surinam grass ([13]; Rate 140 g/ha): 60

Cc1cnc(-n2ccc(C(F)(F)F)n2)nc1Cc1cccc(OC(F)(F)F)c1 [Compound 42]
Plant response rating, S. Flatsedge [1, 14]: 9
S. Flatsedge plant response rating ([1]; Rate 125 g/ha): 9
Plant response rating, S. Flatsedge [1, 16]: 9
Plant response rating, Ducksalad [2, 14]: 1
Plant response rating, Ducksalad [2, 15]: 8
Plant response rating, Ducksalad [2, 16]: 8
Plant response rating, Rice [3, 14]: 4
Rice plant response rating ([3]; Rate 125 g/ha): 6
Plant response rating, Rice [3, 16]: 6
Plant response rating, Barnyardgrass [4, 14]: 4
Plant response rating, Barnyardgrass [4, 15]: 4
Plant response rating, Barnyardgrass [4, 16]: 5
Plant response rating, Cotton ([5]; Rate 35 g/ha): 30
Plant response rating, Cotton ([5]; Rate 70 g/ha): 60
Plant response rating, Cotton ([5]; Rate 140 g/ha): 60
Plant response rating, Giant foxtail ([6]; Rate 35 g/ha): 70
Plant response rating, Giant foxtail ([6]; Rate 70 g/ha): 80
Plant response rating, Giant foxtail ([6]; Rate 140 g/ha): 100
Plant response rating, Field bindweed ([7]; Rate 35 g/ha): 95
Plant response rating, Field bindweed ([7]; Rate 70 g/ha): 100
Plant response rating, Field bindweed ([7]; Rate 140 g/ha): 100
Plant response rating, Wild poinsettia ([8]; Rate 35 g/ha): 25
Plant response rating, Wild poinsettia ([8]; Rate 70 g/ha): 30
Plant response rating, Wild poinsettia ([8]; Rate 140 g/ha): 85
Plant response rating, E. blacknightsh ([9]; Rate 35 g/ha): 90
Plant response rating, E. blacknightsh ([9]; Rate 70 g/ha): 95
Plant response rating, E. blacknightsh ([9]; Rate 140 g/ha): 95
Plant response rating, Rape ([10]; Rate 62 g/ha, Postemergence): 10
Rape plant response rating ([10]; Rate 62 g/ha, Preemergence): 7
Rape plant response rating ([10]; Rate 125 g/ha, Postemergence): 10
Rape plant response rating ([10]; Rate 125 g/ha, Preemergence): 10
Plant response rating, Rape ([10]; Rate 250 g/ha, Postemergence): 10
Plant response rating, Rape [10, 17]: 10
Plant response rating, Soybean ([11]; Rate 62 g/ha, Postemergence): 9
Soybean plant response rating ([11]; Rate 62 g/ha, Preemergence): 2
Soybean plant response rating ([11]; Rate 125 g/ha, Postemergence): 9
Plant response rating, Soybean ([11]; Rate 125 g/ha, Preemergence): 4
Plant response rating, Soybean ([11]; Rate 250 g/ha, Postemergence): 9
Plant response rating, Soybean [11, 17]: 4
Plant response rating, Lambsquarters ([12]; Rate 35 g/ha): 85
Plant response rating, Lambsquarters ([12]; Rate 70 g/ha): 100
Plant response rating, Lambsquarters ([12]; Rate 140 g/ha): 100
Plant response rating, Surinam grass ([13]; Rate 35 g/ha): 50
Plant response rating, Surinam grass ([13]; Rate 70 g/ha): 55
Plant response rating, Surinam grass ([13]; Rate 140 g/ha): 70

Cc1cnc(-n2cnc(C(F)(F)F)n2)nc1Cc1cccc(C(F)(F)F)c1 [Compound 43]
Plant response rating, S. Flatsedge [1, 14]: 9
S. Flatsedge plant response rating ([1]; Rate 125 g/ha): 9
Plant response rating, S. Flatsedge [1, 16]: 9
Plant response rating, Ducksalad [2, 14]: 8
Plant response rating, Ducksalad [2, 15]: 9
Plant response rating, Ducksalad [2, 16]: 9
Plant response rating, Rice [3, 14]: 4
Rice plant response rating ([3]; Rate 125 g/ha): 6
Plant response rating, Rice [3, 16]: 7
Plant response rating, Barnyardgrass [4, 14]: 4
Plant response rating, Barnyardgrass [4, 15]: 4
Plant response rating, Barnyardgrass [4, 16]: 5
Plant response rating, Cotton ([5]; Rate 35 g/ha): 0
Plant response rating, Cotton ([5]; Rate 70 g/ha): 0
Plant response rating, Cotton ([5]; Rate 140 g/ha): 10
Plant response rating, Giant foxtail ([6]; Rate 35 g/ha): 100
Plant response rating, Giant foxtail ([6]; Rate 70 g/ha): 100
Plant response rating, Giant foxtail ([6]; Rate 140 g/ha): 100
Plant response rating, Field bindweed ([7]; Rate 35 g/ha): 100
Plant response rating, Field bindweed ([7]; Rate 70 g/ha): 100
Plant response rating, Field bindweed ([7]; Rate 140 g/ha): 100
Plant response rating, Wild poinsettia ([8]; Rate 35 g/ha): 10
Plant response rating, Wild poinsettia ([8]; Rate 70 g/ha): 50
Plant response rating, Wild poinsettia ([8]; Rate 140 g/ha): 60
Plant response rating, E. blacknightsh ([9]; Rate 35 g/ha): 100
Plant response rating, E. blacknightsh ([9]; Rate 70 g/ha): 100
Plant response rating, E. blacknightsh ([9]; Rate 140 g/ha): 100
Plant response rating, Rape ([10]; Rate 62 g/ha, Postemergence): 9
Rape plant response rating ([10]; Rate 62 g/ha, Preemergence): 8
Rape plant response rating ([10]; Rate 125 g/ha, Postemergence): 10
Rape plant response rating ([10]; Rate 125 g/ha, Preemergence): 10
Plant response rating, Rape ([10]; Rate 250 g/ha, Postemergence): 10
Plant response rating, Rape [10, 17]: 10
Plant response rating, Soybean ([11]; Rate 62 g/ha, Postemergence): 8
Soybean plant response rating ([11]; Rate 62 g/ha, Preemergence): 1
Soybean plant response rating ([11]; Rate 125 g/ha, Postemergence): 9
Plant response rating, Soybean ([11]; Rate 125 g/ha, Preemergence): 5
Plant response rating, Soybean ([11]; Rate 250 g/ha, Postemergence): 9
Plant response rating, Soybean [11, 17]: 7
Plant response rating, Lambsquarters ([12]; Rate 35 g/ha): 100
Plant response rating, Lambsquarters ([12]; Rate 70 g/ha): 100
Plant response rating, Lambsquarters ([12]; Rate 140 g/ha): 100
Plant response rating, Surinam grass ([13]; Rate 35 g/ha): 0
Plant response rating, Surinam grass ([13]; Rate 70 g/ha): 5
Plant response rating, Surinam grass ([13]; Rate 140 g/ha): 10

— US6525001B1, “Substituted pyrimidine and pyridine herbicides” (Mid-American Commercialization Corporation, priority 1997, dated 2003)
